IC50 data for 17 compounds are collected here from patent US20240109915A1, “NOVEL ACC INHIBITORS” (Pfizer Inc., priority 2022, published 2024).

The target in this experiment is recombinant human ACC1 (rhACC1) (Homo sapiens (Human), UniProt Q13085). Put plainly: Transcreener ADP detection FP assay, direct inhibition of rhACC1. In kind it is biochemical. The settings on record: Geomean IC50, n ≥ 2 unless * then n = 1; 50 μM ATP, 30 μM acetyl-CoA. The protocol: The direct inhibition of ACC1 for the compounds of the present invention was determined using preparations of recombinant human ACC1 (rhACC1) (SEQ ID NO. 1)
Two liters of SF9 cells, infected with recombinant baculovirus containing full length human ACC1 cDNA, were suspended in ice-cold lysis buffer (25 mM Tris, pH 7.5; 150 mM NaCl; 10% glycerol; 5 mM imidazole (EMD Bioscience; Gibbstown, NJ); 2 mM TCEP (BioVectra; Charlottetown, Canada); Benzonase nuclease (10000 U/100 g cell paste; Novagen; Madison, WI); EDTA-free protease inhibitor cocktail (1 tab/50 ml; Roche Diagnostics; Mannheim, Germany). Cells were lysed by 3 cycles of freeze-thaw and centrifuged at 40,000×g for 40 minutes (4° C.). Supernatant was directly loaded onto a HisTrap FF crude column (GE Healthcare; Piscataway, NJ) and eluted with an imidazole gradient up to 0.5 M over 20 column volumes (CV). ACC1-containing fractions were pooled and diluted 1:5 with 25 mM Tris, pH 7.5, 2 mM TCEP, 10% glycerol and direct loaded onto a CaptoQ (GE Healthcare) column and eluted with an NaCl gradient up to 1 M over 20 CV's. Phosphate groups were removed from purified ACC1 by incubation with lambda phosphatase (100 U/10 μM target protein; New England Biolabs; Beverly, MA) for 14 hours at 4° C.; okadaic acid was added (1 μM final concentration; Roche Diagnostics) to inhibit the phosphatase. Purified ACC1 was exchanged into 25 mM Tris, pH 7.5, 2 mM TCEP, 10% glycerol, 0.5 M NaCl by 6 hour dialysis at 4° C. Aliquots were prepared and frozen at −80° C.
Measurement of rhACC1 Inhibition rhACC1 was assayed in a Corning #3820 (Corning, Tewksbury, MA) 384-well plate using the Transcreener ADP detection FP assay kit (Bellbrook Labs, Madison, Wisconsin) using the manufacturer's recommended conditions for a 50 μM ATP reaction. The final conditions for the assay were 50 mM HEPES, pH 7.2, 10 mM MgCl2, 7.5 mM tripotassium citrate, 2 mM DTT, 0.1 mg/mL BSA, 30 μM acetyl-CoA, 50 μM ATP, and 10 mM KHCO3. Typically, a […] was run for 60 min at room temp, and 10 μl of Transcreener stop and detect buffer was added and the combination incubated at room temp for an overnight (18 hours). The data was acquired on an Envision Fluorescence reader (PerkinElmer) using a 620 excitation Cy5 FP general dual mirror, 620 excitation Cy5 FP filter, 688 emission (S) and a 688 (P) emission filter.
The IC50 is the concentration needed to halve the response being measured. `COc1cc(C(=O)N2CCC3(CC2)CC(=O)c2nc(C(C)(C)C)sc2C3)c2[nH]nc(C)c2c1` [Example 98]: the IC50 worked out at 8.6 nM.

Take `CCc1nccc2c(OC)cc(C(=O)N3CCC4(CC3)CC(=O)c3nc(C(C)(C)C)sc3C4)cc12` [Example 29, 2-(tert-butyl)-1′-(1-ethyl-5-methoxyisoquinoline-7-carbonyl)-5H-spiro[benzo[d]thiazole-6,4′-piperidin]-4(7H)-one]: the half-inhibitory concentration (IC50) came to 11.1 nM.

In the case of `Cc1cc(C(=O)N2CCC3(CC2)CC(=O)c2nc(C(C)(C)C)sc2C3)cc2c(C3CC3)nccc12` [Example 25, 2-(tert-butyl)-1′-(1-cyclopropyl-5-methylisoquinoline-7-carbonyl)-5H-spiro[benzo[d]thiazole-6,4′-piperidin]-4(7H)-one], the IC50 stood at 6.6 nM. The figure for `Cc1cnc(C)c2cc(C(=O)N3CCC4(CC3)CC(=O)c3nc(C(C)(C)C)sc3C4)ccc12` [Example 27, 2-(tert-butyl)-1′-(1,4-dimethylisoquinoline-7-carbonyl)-5H-spiro[benzo[d]thiazole-6,4′-piperidin]-4(7H)-one] is 29.5 nM; for “2-(tert-butyl)-1′-(4-chloro-5-methoxy-1H-indole-7-carbonyl)-5H-spiro[benzo[d]thiazole-6,4′-piperidin]-4(7H)-one [Example 37]” it is 1.3 nM. `COc1cc(C(=O)N2CCC3(CC2)CC(=O)c2nc(C(C)(C)C)sc2C3)cc2c1ccn2C` [Example 83]: the IC50 was found to be 11.1 nM. The figure for `Cc1c[nH]c2cc(C(=O)N3CCC4(CC3)CC(=O)c3nc(C(C)(C)C)sc3C4)ccc12` [Example 51] is 22.4 nM; for `COc1ccnc2c(C)cc(C(=O)N3CCC4(CC3)CC(=O)c3nc(C(C)(C)C)sc3C4)cc12` [Example 41, 2-(tert-butyl)-1′-(4-methoxy-8-methylquinoline-6-carbonyl)-5H-spiro[benzo[d]thiazole-6,4′-piperidin]-4(7H)-one] it is 15.3 nM. Next, `COc1cc(C(=O)N2CCC3(CC2)CC(=O)c2nc(C(C)(C)C)sc2C3)cc2cc[nH]c12` [Example 106]: 12.9 nM. The figure for `CC(C)(C)c1nc2c(s1)CC1(CCN(C(=O)c3cc(O)c4ccccc4c3)CC1)CC2=O` [Example 57] is 19.7 nM; for `CCNc1ccc2c(C)cc(C(=O)N3CCC4(CC3)CC(=O)c3nc(C(C)(C)C)sc3C4)cc2n1` [Example 39, 2-(tert-butyl)-1′-(2-(ethylamino)-5-methylquinoline-7-carbonyl)-5H-spiro[benzo[d]thiazole-6,4′-piperidin]-4(7H)-one] it is 6.4 nM; for `COc1cnc2c(OC)cc(C(=O)N3CCC4(CC3)CC(=O)c3nc(C(C)(C)C)sc3C4)cc2c1` [Example 101] it is 10.1 nM. On to `Cc1c[nH]c2ccc(C(=O)N3CCC4(CC3)CC(=O)c3nc(C(C)(C)C)sc3C4)cc12` [Example 64], for which the IC50 was found to be 11.8 nM. The figure for `COc1cc(C(=O)N2CCC3(CC2)CC(=O)c2nc(C(C)(C)C)sc2C3)cc2c(C)ccnc12` [Example 95] is 46.5 nM; for `CN(C)c1cc(C(=O)N2CCC3(CC2)CC(=O)c2nc(C(C)(C)C)sc2C3)cc(-c2ccc(C(N)=O)cc2)n1` [Example 22, 4-(4-(2-(tert-butyl)-4-oxo-4,7-dihydro-5H-spiro[benzo[d]thiazole-6,4′-piperidine]-1′-carbonyl)-6-(dimethylamino)pyridin-2-yl)benzamide] it is 0.9 nM. The figure for `CNc1ccc2c(OC)cc(C(=O)N3CCC4(CC3)CC(=O)c3nc(C(C)(C)C)sc3C4)cc2n1` [Example 40, 2-(tert-butyl)-1′-(5-methoxy-2-(methylamino)quinoline-7-carbonyl)-5H-spiro[benzo[d]thiazole-6,4′-piperidin]-4(7H)-one] is 1.5 nM.

Regarding `COc1ccc2cc(C(=O)N3CCC4(CC3)CC(=O)c3nc(C(C)(C)C)sc3C4)cc(C)c2n1` [Example 80], the half-inhibitory concentration (IC50) turned out to be 109 nM.
